The record followed here is ChEMBL document CHEMBL4038289, “Y-shaped bis-arylethenesulfonic acid esters: Potential potent and membrane permeable protein tyrosine phosphatase 1B inhibitors” (Bioorg Med Chem Lett, 2017).

Data set [1] addresses T1, Tyrosine-protein phosphatase non-receptor type 1 (Homo sapiens, UniProt P18031).
T1 sequence (P18031 whole entry): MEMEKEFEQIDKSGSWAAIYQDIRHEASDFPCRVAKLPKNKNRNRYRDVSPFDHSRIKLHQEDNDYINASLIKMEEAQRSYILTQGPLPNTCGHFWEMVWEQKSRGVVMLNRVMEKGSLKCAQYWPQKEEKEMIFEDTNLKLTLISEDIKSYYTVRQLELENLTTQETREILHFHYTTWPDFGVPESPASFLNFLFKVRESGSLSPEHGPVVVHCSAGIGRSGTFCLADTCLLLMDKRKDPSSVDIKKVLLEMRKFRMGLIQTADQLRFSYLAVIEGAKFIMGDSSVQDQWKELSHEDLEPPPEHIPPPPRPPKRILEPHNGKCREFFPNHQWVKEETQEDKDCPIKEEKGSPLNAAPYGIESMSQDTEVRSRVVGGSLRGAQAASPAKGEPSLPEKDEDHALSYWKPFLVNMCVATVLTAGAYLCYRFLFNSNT
The data set is described as follows: Inhibition of recombinant PTP1B (unknown origin) expressed in Escherichia coli using pNPP as substrate measured after 30 mins.

Data set [2] has as its target T2, Tyrosine-protein phosphatase non-receptor type 11 (Homo sapiens, UniProt Q06124).
T2 sequence (Q06124 whole entry): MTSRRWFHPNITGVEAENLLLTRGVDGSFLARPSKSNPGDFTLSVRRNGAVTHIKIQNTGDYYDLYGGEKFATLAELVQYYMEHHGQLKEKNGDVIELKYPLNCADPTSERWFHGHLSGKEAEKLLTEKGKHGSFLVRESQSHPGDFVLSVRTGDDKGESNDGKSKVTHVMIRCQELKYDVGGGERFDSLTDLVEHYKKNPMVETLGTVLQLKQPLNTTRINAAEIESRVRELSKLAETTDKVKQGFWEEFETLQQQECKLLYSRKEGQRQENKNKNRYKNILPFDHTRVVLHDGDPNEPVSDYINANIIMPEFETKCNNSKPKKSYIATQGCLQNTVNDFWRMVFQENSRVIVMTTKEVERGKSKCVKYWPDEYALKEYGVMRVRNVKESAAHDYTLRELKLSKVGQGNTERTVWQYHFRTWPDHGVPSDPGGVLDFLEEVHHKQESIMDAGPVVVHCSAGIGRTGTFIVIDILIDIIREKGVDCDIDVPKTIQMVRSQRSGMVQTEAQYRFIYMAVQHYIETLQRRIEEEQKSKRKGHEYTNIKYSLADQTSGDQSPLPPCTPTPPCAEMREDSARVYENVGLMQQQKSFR
The data set is described as follows: Inhibition of recombinant SHP2 (unknown origin) using pNPP as substrate measured after 30 mins.

A short description of data set [3]: Apparent permeability of compound at 20 uM at pH 7.4 after 16 hrs by PAMPA. The class given is physicochemical.
The species entered for data set [4] is Homo sapiens. As to the kind of experiment: Selectivity ratio of IC50 for recombinant TCPTP (unknown origin) to IC50 for recombinant PTP1B (unknown origin) expressed in Escherichia coli.
Data set [5] addresses T3, Tyrosine-protein phosphatase non-receptor type 2 (Homo sapiens, UniProt P17706).
T3 sequence (P17706 whole entry): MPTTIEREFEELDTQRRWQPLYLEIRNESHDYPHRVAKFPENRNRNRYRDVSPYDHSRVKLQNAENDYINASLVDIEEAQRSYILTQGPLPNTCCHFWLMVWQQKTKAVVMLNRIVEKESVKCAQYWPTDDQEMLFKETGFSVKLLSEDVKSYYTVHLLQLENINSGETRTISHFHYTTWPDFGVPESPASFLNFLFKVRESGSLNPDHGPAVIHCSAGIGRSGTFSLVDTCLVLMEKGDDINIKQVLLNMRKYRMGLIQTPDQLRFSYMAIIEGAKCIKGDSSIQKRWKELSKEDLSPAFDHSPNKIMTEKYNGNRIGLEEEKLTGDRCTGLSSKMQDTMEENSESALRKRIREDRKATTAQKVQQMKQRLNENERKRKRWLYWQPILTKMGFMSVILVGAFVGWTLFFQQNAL
As to the kind of experiment: Inhibition of recombinant TCPTP (unknown origin) using pNPP as substrate measured after 30 mins.

The species named for data set [6] is Homo sapiens. The data set is described as follows: Selectivity ratio of IC50 for recombinant SHP2 (unknown origin) to IC50 for recombinant PTP1B (unknown origin) expressed in Escherichia coli.

What is called IC50 is the concentration needed to halve the response being measured. For `CCOS(=O)(=O)/C=C/c1ccc(OCc2ccc(COc3ccc(/C=C/S(=O)(=O)OCC)cc3)c(C(=O)Nc3ccc(F)cc3)c2)cc1`, the concentration for half-maximal inhibition (IC50) in data set [1] was 1.1 µM. Same read-out and setting: for `CCOS(=O)(=O)/C=C/c1ccc(OCc2ccc(COc3ccc(/C=C/S(=O)(=O)OCC)cc3)c(C(=O)Nc3ccc(Oc4ccccc4)cc3)c2)cc1` the value was 0.86 µM; for `CCOS(=O)(=O)/C=C/c1ccc(OCCOc2ccc(/C=C/S(=O)(=O)OCC)cc2)cc1`, 3 µM. As a reminder, the Papp is a coefficient for how fast a substance crosses the barrier. Take `CCOS(=O)(=O)/C=C/c1ccc(OCc2ccc(COc3ccc(/C=C/S(=O)(=O)OCC)cc3)c(C(=O)Nc3ccc(Oc4ccc(Br)cc4Cl)cc3)c2)cc1`: the figures for the IC50 in data set [2], in data set [5] and in data set [1] were 1.05 µM, 1.43 µM and 0.16 µM, respectively. For the same compound, in data set [3], the Papp at 16 h, 20 µM was 12.6 ×10⁻⁶ cm/s. The Ratio IC50 was 5 to 9 in the data set filed under Homo sapiens [4] and 5 to 6 in the data set listed under Homo sapiens [6]. Take `CCOS(=O)(=O)/C=C/c1ccc(OCc2ccc(COc3ccc(/C=C/S(=O)(=O)OCC)cc3)c(C(=O)Nc3ccc(Oc4ccc(F)cc4)cc3)c2)cc1`: the IC50 in data set [1] turned out to be 1.3 µM. With `CCOS(=O)(=O)/C=C/c1ccc(OCc2ccc(COc3ccc(/C=C/S(=O)(=O)OCC)cc3)c(C(=O)Nc3ccc(Oc4ccc(C(F)(F)F)cc4)cc3)c2)cc1`, the IC50 in data set [1] turned out to be 0.82 µM. Same read-out and setting: the result for `CCOS(=O)(=O)/C=C/c1ccc(OCc2ccc(COc3ccc(/C=C/S(=O)(=O)OCC)cc3)c(C(=O)Nc3ccc(Oc4ccccc4C(F)(F)F)cc3)c2)cc1` reads 0.87 µM. As for `CCOS(=O)(=O)/C=C/c1ccc(OCc2ccc(COc3ccc(/C=C/S(=O)(=O)OCC)cc3)c(C(=O)Nc3ccc(Oc4ccc(-c5ccccc5)cc4)cc3)c2)cc1`, the IC50 in data set [2] worked out at 0.92 µM; in data set [5], 1.29 µM; in data set [1] it was 0.14 µM. For the same compound, the apparent permeability coefficient (Papp) at 16 h, 20 µM in data set [3] amounted to 9.7 ×10⁻⁶ cm/s. For the same compound, the Ratio IC50 in the data set filed under Homo sapiens [4] was in the range of 5 to 9; in the data set listed under Homo sapiens [6], 5 to 6.

As to `CC(C)NCC(O)COc1cccc2ccccc12` (stereo not given) [PROPRANOLOL], the Papp at 16 h, 20 µM in data set [3] worked out at 18.7 ×10⁻⁶ cm/s. As to `CCOS(=O)(=O)/C=C/c1ccc(OCc2ccc(COc3ccc(/C=C/S(=O)(=O)OCC)cc3)c(C(=O)Nc3ccc(Oc4cccc(-c5ccccc5)c4)cc3)c2)cc1`, in data set [1], the IC50 was determined as 1.1 µM.

In the case of `CCOS(=O)(=O)/C=C/c1ccc(OCc2ccc(COc3ccc(/C=C/S(=O)(=O)OCC)cc3)c(C(=O)Nc3ccc(Oc4cccc(C(F)(F)F)c4)cc3)c2)cc1`, the IC50 in data set [2] was 1.7 µM; in data set [5] it was 1.62 µM; in data set [1], 0.35 µM. Further, in data set [3], the Papp at 16 h, 20 µM amounted to 6.9 ×10⁻⁶ cm/s. The Ratio IC50 in the data set filed under Homo sapiens [4] was in the range of 5 to 9; in the data set filed under Homo sapiens [6], 5 to 6.

`CCOS(=O)(=O)/C=C/c1ccc(OCc2ccc(COc3ccc(/C=C/S(=O)(=O)OCC)cc3)c(C(=O)Nc3ccc(OC)cc3)c2)cc1`: the IC50 in data set [1] was 2.6 µM. For the compound `CCOS(=O)(=O)/C=C/c1ccc(OCc2ccc(COc3ccc(/C=C/S(=O)(=O)OCC)cc3)cc2)cc1`, the figures for the IC50 in data set [2], in data set [5] and in data set [1] were 4.7 µM, 3.39 µM and 1.2 µM, respectively.

In the case of `CCOS(=O)(=O)/C=C/c1ccc(OCc2ccc(COc3ccc(/C=C/S(=O)(=O)OCC)cc3)c(C(=O)Nc3ccc(Oc4ccc(CC)cc4)cc3)c2)cc1`, the IC50 in data set [2] worked out at 1.1 µM; in data set [5], 1.32 µM; in data set [1] it was 0.19 µM. The Papp at 16 h, 20 µM in data set [3] amounted to 8.5 ×10⁻⁶ cm/s. Besides, the Ratio IC50 in the data set listed under Homo sapiens [4] fell in the range of 5 to 9; in the data set listed under Homo sapiens [6], 5 to 6.

As to `CCOS(=O)(=O)/C=C/c1ccc(OCc2ccc(COc3ccc(/C=C/S(=O)(=O)OCC)cc3)c(C(=O)Nc3ccc(Oc4ccccc4F)cc3)c2)cc1`, the IC50 in data set [1] worked out at 0.85 µM.

Regarding `CCOS(=O)(=O)/C=C/c1ccc(OCOc2ccc(/C=C/S(=O)(=O)OCC)cc2)cc1`, the IC50 in data set [1] was 8.7 µM. For `CCOS(=O)(=O)/C=C/c1ccc(OCc2ccc(COc3ccc(/C=C/S(=O)(=O)OCC)cc3)c(C(=O)Nc3ccc(Oc4ccc(Cl)cc4)cc3)c2)cc1`, the IC50 in data set [2] was found to be 0.94 µM; in data set [5], 2.97 µM; in data set [1] it was 0.4 µM. Moreover, the Papp at 16 h, 20 µM in data set [3] worked out at 9.1 ×10⁻⁶ cm/s. For the same compound, the Ratio IC50 in the data set listed under Homo sapiens [4] was 5 to 9. Turning to `CCOS(=O)(=O)/C=C/c1ccc(OCc2ccc(COc3ccc(/C=C/S(=O)(=O)OCC)cc3)c(C(=O)Nc3ccc(Oc4ccc(C(C)(C)C)cc4)cc3)c2)cc1`, the IC50 in data set [1] was 0.91 µM. As to `CCOS(=O)(=O)/C=C/c1ccc(OCc2ccc(COc3ccc(/C=C/S(=O)(=O)OCC)cc3)c(C(=O)Nc3ccc(Oc4ccc(C(C)C)cc4)cc3)c2)cc1`, the IC50 in data set [1] amounted to 0.75 µM. Consider `CCOS(=O)(=O)/C=C/c1ccc(OCc2ccc(COc3ccc(/C=C/S(=O)(=O)OCC)cc3)c(C(=O)Nc3ccc(Oc4ccc5ccccc5c4)cc3)c2)cc1`, for which the IC50 in data set [1] was found to be 0.79 µM.

Turning to `CCOS(=O)(=O)/C=C/c1ccc(OCCCOc2ccc(/C=C/S(=O)(=O)OCC)cc2)cc1`, the concentration for half-maximal inhibition (IC50) in data set [1] came out at 37.3 µM. Consider `CCOS(=O)(=O)/C=C/c1ccc(OCc2ccc(COc3ccc(/C=C/S(=O)(=O)OCC)cc3)c(C(=O)Nc3ccc(C(C)C)cc3)c2)cc1`, for which the IC50 in data set [1] was 1.3 µM. Turning to `CCOS(=O)(=O)/C=C/c1ccc(OCc2cccc(COc3ccc(/C=C/S(=O)(=O)OCC)cc3)c2)cc1`, in data set [1], the IC50 came to 18.4 µM. For the compound `CCOS(=O)(=O)/C=C/c1ccc(OC2CCC(Oc3ccc(/C=C/S(=O)(=O)OCC)cc3)CC2)cc1` (stereo not given), the IC50 in data set [1] came to 29.2 µM.

Turning to `CCOS(=O)(=O)/C=C/c1ccc(OCCCCOc2ccc(/C=C/S(=O)(=O)OCC)cc2)cc1`, the concentration for half-maximal inhibition (IC50) in data set [1] is > 100 µM. For the compound `CCOS(=O)(=O)/C=C/c1ccc(Oc2ccc(/C=C/S(=O)(=O)OCC)cc2)cc1`, the IC50 in data set [1] was determined as 11.8 µM. For the compound `CCOS(=O)(=O)/C=C/c1ccc(OCc2ccc(COc3ccc(/C=C/S(=O)(=O)OCC)cc3)c(C(=O)Nc3ccccc3)c2)cc1`, the IC50 in data set [1] is 1.4 µM. As for `CCOS(=O)(=O)/C=C/c1ccc(OCc2ccc(COc3ccc(/C=C/S(=O)(=O)OCC)cc3)c(C(=O)O)c2)cc1`, the IC50 in data set [1] came to 1.3 µM. On the same count and under the same terms, the result for `CCOS(=O)(=O)/C=C/c1ccc(OCc2ccc(COc3ccc(/C=C/S(=O)(=O)OCC)cc3)c(C(=O)OC)c2)cc1` reads 3.4 µM.
